For 16 compounds, IC50 and EC30 results are on record in patent US9776972B2, “Pyrazole derivatives as arginine methyltransferase inhibitors and uses thereof” (priority 2013, dated 2017).

As usually defined, the IC50 is the point on the concentration scale where inhibition reaches its midpoint. A lower IC50 goes with greater potency in that assay. In general, EC30 refers to the point of the concentration-response curve where the effect stands at 30%.

Each structure is given as a SMILES string. Read-outs that look alike come from different tables or passages of the source.

One assay concerns the target human PRMT8 (Homo sapiens, UniProt Q9NR22). In words: PRMT8 Biochemical Assay (3H-SAM Flashplate, peptide substrate). The conditions noted are these: single experiment or average of multiple experiments. Put shortly:
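E. coli-expressed human PRMT8 (GST removed) was preincubated with compound for 30 min at room temperature in 20 mM Bicine pH 7.6 with TCEP, BSG and Tween 20. 3H-SAM and a biotinylated H4 31-45 peptide were then added, and the reaction was stopped with cold SAM. Labelled peptide was captured on streptavidin Flashplates; % inhibition was calculated against DMSO and SAH controls and fitted to a 3- or 4-parameter curve.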

The subject of assay [1] is mono-methyl arginine in RKO cells. Nature of the assay: RKO Methylation Assay, In Cell Western (ICW) for mono-methyl arginine and DNA content. The settings on record: Homo sapiens, RKO, 72 h. The class given is cell-based. An outline of the steps:
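RKO cells treated with compound for 72 hours at 37 °C, then methanol-fixed and stained overnight at 4 °C with anti-mono-methyl arginine antibody, plus DRAQ5 for DNA. Signal ratio from 700 and 800 nm infrared scans normalized to DMSO (minimum) and 20 μM reference compound (maximum); EC30 from triplicate curves.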

Where [2] appears, read: RKO cells, 72 hours, mono-methyl arginine, percent activation, single experiment or average of multiple experiments, read-out: EC30 (In Cell Western data, Numerical).

human PRMT8, sequence (Q9NR22 whole entry): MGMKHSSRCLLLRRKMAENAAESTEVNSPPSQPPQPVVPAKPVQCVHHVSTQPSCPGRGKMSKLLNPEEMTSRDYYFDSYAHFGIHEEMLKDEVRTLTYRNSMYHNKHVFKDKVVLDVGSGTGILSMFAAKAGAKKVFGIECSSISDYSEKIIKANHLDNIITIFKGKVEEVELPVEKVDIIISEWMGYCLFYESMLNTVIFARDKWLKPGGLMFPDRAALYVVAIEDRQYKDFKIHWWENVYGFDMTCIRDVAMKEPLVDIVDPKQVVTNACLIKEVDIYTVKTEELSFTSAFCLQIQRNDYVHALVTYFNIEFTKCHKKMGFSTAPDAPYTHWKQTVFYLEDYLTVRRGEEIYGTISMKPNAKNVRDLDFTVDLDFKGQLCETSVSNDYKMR

At human PRMT8, `CNCCN(C)Cc1c[nH]nc1-c1ccc(OCCCOC)cc1` [Compound 209] came in with an IC50 of 483 nM. Also, the EC30 in assay [1] (setting [2]) turned out to be 0.557 µM.

The compound `CNCCN(C)Cc1c[nH]nc1-c1ccc(C(F)(F)F)cc1` [Compound 174] returned an IC50 against human PRMT8 of 228 nM. For the same compound, the EC30 in assay [1] (setting [2]) came to 0.26 µM.

`CN(CCN)Cc1c[nH]nc1-c1ccc(Oc2ccccc2)c(F)c1` [Compound 224, N^1-((3-(3-fluoro-4-phenoxyphenyl)-1H-pyrazol-4-yl)methyl)-N^1-methylethane-1,2-diamine] gave an IC50 against human PRMT8 of 346 nM. The EC30 in assay [1] (read-out: EC30 (In Cell Western data, Numerical, μM)) came out at 0.27 µM.

`CNCCN(C)Cc1c[nH]nc1-c1ccc(Oc2ccccc2)c(C#N)c1` [Compound 221]: the IC50 on human PRMT8 is 328 nM. In assay [1] (setting [2]), the EC30 was 0.413 µM.

On to `CCC(=O)N1CCN(c2ccc(-c3n[nH]cc3CN(C)CCN)cc2)CC1` [Compound 189], for which the midpoint of inhibition at human PRMT8, the IC50, lay at 2990 nM. In assay [1] (setting [2]), the EC30 is more than 20 µM.

For the compound `COc1ccc(Cl)cc1-c1n[nH]cc1CN(C)CCN` [Compound 157], on human PRMT8, the IC50 was found to be 5820 nM. Besides, the EC30 in assay [1] (setting [2]) was more than 20 µM.

Compound `COCCOc1ccc(-c2n[nH]cc2CN(C)CCN)cc1` [Compound 167] registered an IC50 against human PRMT8 of 284 nM. Moreover, in assay [1] (setting [2]), the concentration for an effect of 30% (EC30) is 0.845 µM.

At human PRMT8, `CN(CCN)Cc1n[nH]cc1-c1ccc(C2CCOCC2)cc1` [Compound 145] had an IC50 of 167 nM. Moreover, the EC30 in assay [1] (setting [2]) stood at 1.95 µM.

With `CCOc1ccc(-c2n[nH]cc2CN(C)CCN)cc1` [Compound 166], half-maximal inhibition against human PRMT8 (IC50) required 191 nM. For the same compound, the EC30 in assay [1] (setting [2]) was 0.434 µM.

In turn, `CNCCN(C)Cc1c[nH]nc1-c1ccc(Cl)c(F)c1` [Compound 182] returned an IC50 against human PRMT8 of 271 nM. For the same compound, the EC30 in assay [1] (setting [2]) was found to be 0.179 µM.

In turn, `CC(C)Oc1ccc(-c2c[nH]nc2CN(C)CCN)cc1Cl` [Compound 211] displayed an IC50 against human PRMT8 of 117 nM. Moreover, in assay [1] (setting [2]), the EC30 was 0.523 µM.

In the case of `CN(CCN(C)C1CC1)Cc1c[nH]nc1-c1ccc(C#N)cc1` [Compound 184], the IC50 on human PRMT8 came to 3030 nM. Further, in assay [1] (setting [2]), the concentration for an effect of 30% (EC30) was determined as 2.41 µM.

As to `CN(CCN1CCC1)Cc1c[nH]nc1-c1ccc(C#N)cc1` [Compound 185], at human PRMT8, it took 4370 nM to reach half-maximal inhibition (IC50). In addition, the EC30 in assay [1] (setting [2]) is more than 20 µM.

`CN(CCN)Cc1c(-c2ccc(C#N)cc2)ncn1C` [Compound 222] showed an IC50 at human PRMT8 of 8880 nM. Besides, the EC30 in assay [1] (setting [2]) is more than 20 µM.

On human PRMT8, `Cc1[nH]nc(-c2ccc(F)cc2)c1CN(C)CCN` [Compound 169] had an IC50 of 2990 nM. For the same compound, in assay [1] (setting [2]), the EC30 was more than 20 µM.

Regarding `COc1ccc(F)cc1-c1n[nH]cc1CN(C)CCN` [Compound 160], inhibition against human PRMT8 was half-maximal at 3010 nM (IC50). The EC30 in assay [1] (setting [2]) came out at 17.7 µM.
